Assays:
[1] = tested on: MCF-7 cells; experiment: In vitro cytotoxicity, colony formation by crystal violet assay, MCF-7; settings: for fold less toxic than the next conjugate: EPIF versus DAUNF, DAUNF versus DOXF, both sensitive (MCF-7) and resistant (MCF-7/ADR) breast cancer cells
Experimental: (§1) The term IC50 as used herein refers to the concentration of drug which inhibits cell growth by 50%, i.e., 50% of cells are viable at the IC50 concentration relative to a no-drug control.
(§2) Cells were incubated with drug for 3 h in RPMI (Roswell Park Memorial Institute) 1640 media containing 10% fetal bovine serum and 1% DMSO. Plates, were developed using the crystal violet assay. […] In all cases percent survival was determined by the extent of colony formation six days after drug treatment.
(§3) All tissue culture materials were obtained from Gibco Life Technologies (Grand Island, N.Y.) unless otherwise stated. MCF-7 breast cancer cells were obtained from American Type Culture Collection (Rockville, Md.). […] Both cell lines were maintained in vitro by serial culture in phenol red-free RPMI Media 1640 supplemented with 10% fetal bovine serum (Gemini Bio-Products, Calbasas, Calif.), L-glutamine (2 mM), HEPES buffer (10 mM), penicillin (100 units/mL), and streptomycin (100 μg/mL). […] Cells were maintained at 37° C. in a humidified atmosphere of 5% CO2 and 95% air.
(§4) Cells were dissociated with trypsin-EDTA, counted, and suspended in growth media to a concentration of 5×10^3 cells/mL. Cell suspensions were dispensed in 200 μL aliquots into 96-well tissue culture plates. Plates were then incubated for 24 h at 37° C. in a humidified atmosphere of 5% CO2 and 95% air. The media was replaced with 180 μL of growth media prior to addition of the cytotoxic agents.
(§5) Concentrations were then corrected by measuring the solution absorbance at 480 nm (ε=11,500/mole anthracycline). The solutions were then serially diluted in DMSO to give a series of 100× working concentration solutions. For each concentration, the 100× solution was diluted 1:10 in serum-free RPMI Media 1640. 20 μL of the resulting […] solution was immediately added to the appropriate lane. Additionally, one lane was treated with 20 μL of 10% DMSO in serum-free RPMI (no drug) and one lane replaced with 200 μL of 1.5 M Tris buffer (no cells). The cells were incubated at 37° C. for 3 h. The drug solutions were removed and 200 μL of fresh growth media was added to each well.
(§6) The extent of colony formation was determined by use of a crystal violet staining assay (Gilles, R. J. et al. (1986), “Determination of cell number in monolayer cultures,” Anal. Biochem. 159:109-113; Reile, H. et al. (1990), “Computerized determination of growth kinetic curves and doubling times from cells in microcultures,” Anal. Biochem. 187:262-267). […] The cells were then stained with 75 μL of 0.1% crystal violet in deionized water for 30 min. […] The plates were blotted dry and 200 μL of 70% ethanol in water was added to each well to solublize the dye. The plates were stored at 4° C. until solubilization was complete (about 4 h). The optical density of each well was measured on an ELISA plate reader at 588 nm. Relative colony sizes were determined by comparison of the drug treated lanes to the control lanes.
(§7) MCF-7 breast cancer cells were obtained from American Type Culture Collection (Rockville, Md.). MCF-7/ADR adriamycin resistant breast cancer cells were a gift of Dr. William W. Wells (Michigan State University). Both cell lines were maintained in vitro by serial culture in phenol red-free RPMI Media 1640 supplemented with 10% fetal bovine serum (Gemini Bio-Products, Calbasas, Calif.), L-glutamine (2 mM), HEPES buffer ([…]), penicillin (100 units/mL), and streptomycin (100 μg/mL). […] Cells were maintained at 37° C. in a humidified atmosphere of 5% CO2 and 95% air.
1640 media containing 10% fetal bovine serum. The resulting 90% media/10% DMSO solutions (v/v) were incubated at 37° C. for 6h.

[2] = tested on: MCF-7/ADR cells; experiment: In vitro cytotoxicity, colony formation by crystal violet assay, MCF-7/ADR; settings: for fold higher cytotoxicity against MCF-7/ADR cells relative to the parent drug: relative to the respective parent drug
Experimental: as §1, §2, §3, §4, §5, §6, §7
These were then diluted 10× with autoclaved Millipore water.

[3] = tested on: self-complementary DNA octamer (GC)4; experiment: Drug-DNA conjugate formation with (GC)4, HPLC; assay type: biochemical; settings: for DNA reacted to form drug-DNA conjugates: 33 μM (GC)4, 33 μM conjugate, 4% DMSO
Experimental: The amount of available formaldehyde was 99 μM (3×33 μM). […] The experiment was also run at 25° C. in pH 6.0 phosphate buffer containing 4% DMSO. […] The ratio for conjugate 1 was assumed to be 24:1, based upon the value for conjugate 2. […] Under these circumstances, the conjugate 1 area was estimated based upon its 480 nm absorbance, assuming the 24:1 ratio for A260:A480.
The formation of drug-DNA conjugates at 25° C. was monitored by HPLC (Method II). […] The experiment was also run in pH 6.0 phosphate buffer containing 4% DMSO.

SMILES	fold less toxic than the next conjugate [1]	IC50 ([1]; read-out: IC50 Values, MCF-7, 3 h drug incubation in RPMI 1640, 10% fetal bovine serum, 1% DMSO, colony formation six days after treatment, fresh drug solution) [nM]	times more cytotoxic against the MCF-7 cell line than the parent drug ([1]; relative to daunorubicin and doxorubicin, respectively) [times]	fold more toxic to MCF-7 cells than the parent drug ([1]; relative to the respective parent drug) [fold]	IC50 ([2]; read-out: IC50 Values, MCF-7-ADR, 3 h drug incubation in RPMI 1640, 10% fetal bovine serum, 1% DMSO, colony formation six days after treatment, fresh drug solution) [nM]	fold higher cytotoxicity against MCF-7/ADR cells relative to the parent drug [2]	(GC)4 reacted relative to the equivalent amount of daunorubicin and formaldehyde ([3]; 33 μM (GC)4, 55 μM conjugate, pH 7.4, 25° C., after approximately 1 min)	extent of DNA reaction to drug-DNA conjugates ([3]; 317 μM (GC)4, 357 μM conjugate, pH 7.4 phosphate buffer, 25° C., 41 h)	IC50 fold higher than a fresh solution ([2]; MCF-7/ADR, after 20 h in 90% H2O/10% DMSO at 37° C. or 20 h in DMSO at ambient temperature) [fold]	fold more toxic to resistant cells with respect to epidoxorubicin, conjugate in equilibrium with its hydrolysis products ([2]; MCF-7/ADR, hydrolysed equilibrium mixture)	DNA reacted to form drug-DNA conjugates ([3]; pH 6.0 phosphate buffer, 25° C., 5 h) [%]	DNA reacted to form drug-DNA conjugates ([3]; pH 7.3 phosphate buffer, 25° C., 24 h) [%]	DNA that had formed drug-DNA conjugates ([3]; 398 μM (GC)4, 796 μM conjugate, pH 7.3 phosphate buffer, 25° C., 5 h) [%]
COc1cccc2c1C(=O)c1c(O)c3c(c(O)c1C2=O)C[C@@](O)(C(C)=O)C[C@@H]3O[C@H]1C[C@H]2[C@H](OCN2CN2CO[C@@H]3[C@H](C)O[C@@H](O[C@H]4C[C@](O)(C(C)=O)Cc5c(O)c6c(c(O)c54)C(=O)c4c(OC)cccc4C6=O)C[C@@H]32)[C@H](C)O1 [DAUNF, bis(3′-N-(3′-N,4′-O-methylenedaunorubicinyl))methane]	approximately 7 fold	4	7	7	5	200 fold	four times as much (GC)4	completely reacted	–	–	–	–	–
COc1cccc2c1C(=O)c1c(O)c3c(c(O)c1C2=O)CC(O)(C(=O)CO)CC3OC1CC2C(OCN3CN2COC2C(C)OC(OC4C[C@](O)(C(=O)CO)Cc5c(O)c6c(c(O)c54)C(=O)c4c(OC)cccc4C6=O)CC23)C(C)O1 (stereo partly drawn) [EPIF]	approximately 7 fold	–	–	–	–	greater than 120 fold	–	–	5	greater than 25 fold	64	68	91

Reference: US6677309B1, “Anti-cancer drug aldehyde conjugate drugs with enhanced cytotoxicity compounds, compositions and methods” (University Technology Corporation, priority 1997, dated 2004)
